# Measured values as given in ChEMBL document CHEMBL1201862, “PubChem BioAssay data set” (2004).
#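 48-hour exposure; five concentrations; linearly interpolated endpoints. At the GI50, growth is halved.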 Active and inactive are the calls of the source. Cut-off read from the data, not from the text of the source: active = GI50 up to about 1.1 µM and inactive = higher.
# Tests used:
# Experiment in all cases: growth of human tumour cells (NCI), 48 h
# DLD-1 = tested on: DLD-1
# DMS-114 = tested on: DMS-114
# DMS-273 = tested on: DMS-273
# HOP-18 = tested on: HOP-18
# KM-20L2 = tested on: KM-20L2
# LXFL 529 = tested on: LXFL 529
# M19-MEL = tested on: M19-MEL
# XF498 = tested on: XF498
# RXF 631 = tested on: RXF 631
SMILES,GI50 (DLD-1),GI50 (DMS-114),GI50 (DMS-273),GI50 (HOP-18),GI50 (KM-20L2),GI50 (LXFL 529),GI50 (M19-MEL),GI50 (XF498),GI50 (RXF 631)
Cc1nc2cc(Nc3ccccc3C(=O)O)ccc2s1,> 100 µM (inactive),> 100 µM (inactive),> 100 µM (inactive),88.9 µM (inactive),> 100 µM (inactive),> 100 µM (inactive),> 100 µM (inactive),,
CCOC(=O)C[C@@]12CCCN[C@]1(C)CCc1ccccc12,> 100 µM (inactive),,,> 100 µM (inactive),> 100 µM (inactive),> 100 µM (inactive),> 100 µM (inactive),> 100 µM (inactive),
Oc1ccc(O)c(-n2cccn2)c1-n1cccn1,> 100 µM (inactive),> 100 µM (inactive),> 100 µM (inactive),,> 100 µM (inactive),> 100 µM (inactive),35.8 µM (inactive),> 100 µM (inactive),
O=C(NCc1ccccc1)c1cc2cc(O)c(O)cc2cn1,36.7 µM (inactive),4.48 µM (inactive),4.7 µM (inactive),13.8 µM (inactive),29.4 µM (inactive),16 µM (inactive),20.1 µM (inactive),28.4 µM (inactive),
NC(=S)N/N=C1/CN(c2ccc(Cl)c(Cl)c2)CC(=O)C1c1nc2ccccc2s1 (stereo not given),> 100 µM (inactive),51.8 µM (inactive),> 100 µM (inactive),,> 100 µM (inactive),37.8 µM (inactive),> 100 µM (inactive),> 100 µM (inactive),
CC(C)(C)C(=O)Nc1cccc2oc(-c3ccccc3)cc12,> 100 µM (inactive),> 100 µM (inactive),> 100 µM (inactive),> 100 µM (inactive),> 100 µM (inactive),36.3 µM (inactive),> 100 µM (inactive),,47 µM (inactive)
COc1ccc(/C=C(\Cl)c2ccc(OC)c(OC)c2)cc1OC,> 100 µM (inactive),> 100 µM (inactive),> 100 µM (inactive),,> 100 µM (inactive),> 100 µM (inactive),> 100 µM (inactive),,
O=S(=O)(c1ccccc1)N1N=C2c3ccccc3CCC[C@H]2C1c1ccccc1 (stereo not given in full),> 100 µM (inactive),> 100 µM (inactive),> 100 µM (inactive),> 100 µM (inactive),> 100 µM (inactive),> 100 µM (inactive),> 100 µM (inactive),> 100 µM (inactive),
CS(=O)(=O)c1ccc(-c2cc(-c3ccc(S(C)(=O)=O)cc3)[n+](-c3cc(-c4ccc(S(C)(=O)=O)cc4)c([O-])c(-c4ccc(S(C)(=O)=O)cc4)c3)c(-c3ccc(S(C)(=O)=O)cc3)c2)cc1,> 100 µM (inactive),> 100 µM (inactive),> 100 µM (inactive),> 100 µM (inactive),> 100 µM (inactive),> 100 µM (inactive),> 100 µM (inactive),,> 100 µM (inactive)
CCc1ccccc1NC(=O)CCc1nnc(S)[nH]1,> 100 µM (inactive),> 100 µM (inactive),> 100 µM (inactive),,> 100 µM (inactive),> 100 µM (inactive),> 100 µM (inactive),> 100 µM (inactive),> 100 µM (inactive)
FC(F)(F)c1ccccc1/C=N/C12CC3CC(CC(C3)C1)C2,,> 100 µM (inactive),> 100 µM (inactive),,> 100 µM (inactive),,> 100 µM (inactive),> 100 µM (inactive),
CS(=O)(=O)OCCN(CCOS(C)(=O)=O)c1ccc(/C=N/c2ccc3oc(=O)ccc3c2)cc1,,0.714 µM (active),,,2.64 µM (inactive),13.1 µM (inactive),13.2 µM (inactive),,
O=C(O)C1(C(=O)O)CC1,> 100 µM (inactive),> 100 µM (inactive),> 100 µM (inactive),> 100 µM (inactive),> 100 µM (inactive),> 100 µM (inactive),> 100 µM (inactive),> 100 µM (inactive),> 100 µM (inactive)
ClC(Cl)=C1C(=C(Cl)Cl)C(Cl)(Cl)C1(Cl)Cl,1.22 µM (inactive),0.748 µM (active),2.64 µM (inactive),5.9 µM (inactive),4.41 µM (inactive),0.938 µM (active),2.72 µM (inactive),9.2 µM (inactive),3.21 µM (inactive)
CSc1nc(NC2OCC(OC(C)=O)C(OC(C)=O)C2OC(C)=O)c(/N=C\C=N\c2c(NC3OCC(OC(C)=O)C(OC(C)=O)C3OC(C)=O)nc(SC)[nH]c2=O)c(=O)[nH]1 (stereo not given),> 100 µM (inactive),> 100 µM (inactive),> 100 µM (inactive),> 100 µM (inactive),> 100 µM (inactive),> 83.6 µM (inactive),> 100 µM (inactive),,74 µM (inactive)
O=C(O)CCC(NC(=O)c1ccc(Nc2nc3ccccc3nc2-c2cccs2)cc1)C(=O)O (stereo not given),> 100 µM (inactive),> 100 µM (inactive),> 100 µM (inactive),> 100 µM (inactive),> 100 µM (inactive),> 100 µM (inactive),> 100 µM (inactive),> 100 µM (inactive),> 100 µM (inactive)
N#CC(C#N)=C(C(C#N)C#N)C(C#N)C#N,> 100 µM (inactive),> 100 µM (inactive),> 100 µM (inactive),,> 100 µM (inactive),> 100 µM (inactive),> 100 µM (inactive),> 100 µM (inactive),> 100 µM (inactive)
